# In ChEMBL document CHEMBL1201862, “PubChem BioAssay data set” (2004):
# Active and inactive are the calls of the source.
# Tests used:
# [1] = HPDE-C7 pancreatic duct cell viability loss – fluorescence, HTS (AID 430); type: functional, cell-based; settings: Homo sapiens
# [2] = system: Streptococcus sp. 'group A'; test: Streptococcus pyogenes SK(-)GAS viability under kanamycin – luminescence, BacTiterGlo, confirmation, counter-screen for streptokinase expression inhibitor project, dose response (AID 1900); type: functional, organism-based
# [3] = viability loss of HPDE-C7K cells – cell-based, fluorescence, HTS, primary screen (AID 431); type: functional; settings: Homo sapiens
# [4] = biological target: T1, Streptokinase A (Streptococcus pyogenes serotype M1, UniProt P10520); test: viability-normalized secreted streptokinase activity reduction – plasminogen activation absorbance, OD405, dose response (AID 1914); type: functional, Streptococcus pyogenes M1 GAS;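 note: secreted streptokinase activity via plasminogen activation per viability signal from cell pellet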
# T1 sequence (P10520 whole entry): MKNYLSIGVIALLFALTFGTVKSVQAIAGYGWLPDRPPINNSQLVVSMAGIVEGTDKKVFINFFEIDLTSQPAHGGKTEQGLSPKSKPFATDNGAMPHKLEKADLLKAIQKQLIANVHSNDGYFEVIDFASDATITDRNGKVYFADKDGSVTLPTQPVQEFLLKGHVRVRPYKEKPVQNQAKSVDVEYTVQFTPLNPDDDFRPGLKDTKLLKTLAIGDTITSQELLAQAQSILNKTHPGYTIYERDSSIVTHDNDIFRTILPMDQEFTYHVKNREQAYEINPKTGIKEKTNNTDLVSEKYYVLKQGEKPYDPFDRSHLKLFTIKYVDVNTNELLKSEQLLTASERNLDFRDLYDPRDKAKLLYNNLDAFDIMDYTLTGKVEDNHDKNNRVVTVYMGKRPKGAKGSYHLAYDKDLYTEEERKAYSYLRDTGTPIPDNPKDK
# [5] = system: Streptococcus; test: GAS UMAA2166 growth inhibition – luminescence, BacTiterGlo, counter-screen for streptokinase expression inhibitor project, dose response (AID 1915); type: functional, organism-based;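 note: potency for reduction of bacterial viability or growth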
# [6] = blockers of bursicon-stimulated LGR2 cAMP reporter – cell-based, HEK293, CRE-luciferase reporter, cherry pick, set 2, dose response (AID 743343); type: functional;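 note: transfected cells were stimulated with diluted bursicon conditioned medium after compound addition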
# [7] = blockade of melanocortin 4 receptor signaling – cell-based, plate reader, cherry pick, counter-screen for LGR2 antagonist project, dose response (AID 743444); type: functional;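 note: transfected HEK 293 cells stimulated with alpha-MSH peptide; potency of inhibitors of the alpha-MSH evoked signal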
# [8] = system: HEK293; test: EBV LMP1 TES2 canonical NF-kB signalling blockers – cell-based, HEK293, luciferase, cherry-pick, dose response (AID 588343); type: functional; settings: Homo sapiens
# [9] = viability of uninfected HEp-2 cells – cell-based, HTS, cytotoxicity control for RSV inhibitor project, dose response (AID 2410); type: functional; settings: human respiratory syncytial virus
# [10] = biological target: T2, Oxysterols receptor LXR-beta (Homo sapiens, UniProt P55055); type: functional, cell-based;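 note: agonist activity at LXR measured by a cell-based luminescence readout across a dose range, run as a counterscreen for daf-12 agonists; HEK293 cells with Gal4-LXR fusion and GAL4-driven luciferase reporter; potency for activation of Gal4-LXR reporter so compounds are agonists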
# T2 sequence (P55055 whole entry): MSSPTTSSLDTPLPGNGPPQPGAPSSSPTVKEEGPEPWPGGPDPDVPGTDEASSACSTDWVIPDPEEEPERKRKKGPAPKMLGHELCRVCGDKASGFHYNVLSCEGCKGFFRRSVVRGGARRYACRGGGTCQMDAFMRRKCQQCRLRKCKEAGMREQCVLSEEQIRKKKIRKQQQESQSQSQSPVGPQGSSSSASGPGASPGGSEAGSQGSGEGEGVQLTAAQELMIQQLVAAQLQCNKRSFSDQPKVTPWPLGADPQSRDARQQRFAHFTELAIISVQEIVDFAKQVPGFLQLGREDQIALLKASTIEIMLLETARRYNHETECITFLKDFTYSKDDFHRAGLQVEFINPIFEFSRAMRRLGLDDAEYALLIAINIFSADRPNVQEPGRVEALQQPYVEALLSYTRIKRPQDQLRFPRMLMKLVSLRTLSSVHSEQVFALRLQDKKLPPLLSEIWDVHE
# [11] = biological target: T3, Ubiquitin-conjugating enzyme E2 N (Homo sapiens, UniProt P61088); type: functional
# T3 sequence (P61088 whole entry): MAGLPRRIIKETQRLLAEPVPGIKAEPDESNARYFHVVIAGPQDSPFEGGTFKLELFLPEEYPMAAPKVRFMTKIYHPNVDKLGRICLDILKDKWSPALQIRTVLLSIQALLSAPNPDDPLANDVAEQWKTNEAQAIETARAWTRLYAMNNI
# [12] = biological target: T3, Ubiquitin-conjugating enzyme E2 N; type: functional; remark: listed apart in the source
# [13] = biological target: T4, Bcl-2-related protein A1 (Mus musculus, UniProt Q07440); type: functional;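 note: confirmatory dose–response counterscreen on Bfl-1, used to check hits from a UBC13 polyubiquitin inhibitor campaign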
# T4 sequence (Q07440 whole entry): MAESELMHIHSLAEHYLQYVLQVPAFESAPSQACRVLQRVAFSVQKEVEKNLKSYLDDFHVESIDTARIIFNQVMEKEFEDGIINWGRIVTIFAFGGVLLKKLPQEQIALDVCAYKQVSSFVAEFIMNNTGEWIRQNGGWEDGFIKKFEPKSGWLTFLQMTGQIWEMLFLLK
# [14] = biological target: G-protein coupled receptor 55 (Homo sapiens, UniProt Q9Y2T6); test: inhibition of LPI-stimulated GPR55 beta-arrestin translocation – imaging, U2OS, beta-arrestin-GFP, LPI agonist, primary screen (AID 2013); type: functional;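 note: antagonist potency measured as reduced agonist-driven arrestin aggregation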
# [15] = off-target signal loss in HeLa-CEM21 co-culture – HeLa F-luc CTL cells, cherry-picked, counter-screen for HIV-1 Env fusion inhibitor project, dose response (AID 652040); type: functional, cell-based;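 note: potency for signal decrease marking cytotoxic or nonspecific inhibition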
# [16] = viability loss in CEM21 cells – cell-based, CellTiter-Glo luminescence, cherry-picked, cytotoxicity control for viral fusion inhibitor project, dose response (AID 652042); type: functional;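 note: potency for signal decrease meaning cytotoxicity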
# [17] = HIV-1 AD8 envelope cell-cell fusion blockers – cherry-pick, dose response (AID 652062); type: functional, cell-based;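 note: luciferase signal from cell-cell fusion driven by HIV-1 clade B AD8 Env; potency is for inhibitors of fusion seen as a drop in luminescence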
# [18] = blockers of HIV-1 envelope-mediated cell-cell fusion – cherry-pick, dose response (AID 652057); type: functional, cell-based
# [19] = cells; type: functional, cell-based
# [20] = cells; type: functional, cell-based; remark: listed apart in the source
# [21] = system: HEK293; test: cells; type: functional, cell-based; settings: Homo sapiens
# [22] = system: HEK293; test: inhibition of NOD1-driven NF-kB reporter – cell-based, luminescence, uHTS, primary screen (AID 1578); type: functional; settings: Homo sapiens
# [23] = system: HEK293; test: NOD2 signaling inhibitors in MDP-stimulated cells, cell-based, uHTS, luminescence (AID 2001); type: functional; settings: Homo sapiens
# [24] = system: HEK293; test: cells; type: functional, cell-based; settings: Homo sapiens; remark: listed apart in the source
# [25] = RKO cell viability reduction, dose response, CellTiter-Glo luminescence (AID 1117322); type: functional
# [26] = HCT116 cell viability decrease, GSK3B pretreatment – CellTiter-Glo, IC50, dose response (AID 1117339); type: functional; settings: HCT-116
# [27] = cytotoxicity toward Colo320 cells – cell-based, CellTiter-Glo luminescence, IC50, dose response (AID 1117334); type: functional; settings: COLO 320
# [28] = Reduced DLD-1 viability, concentration-response, CellTiter-Glo luminescence (AID 1117352); type: functional
# [29] = SNU-C1 cell viability reduction, dose response, CellTiter-Glo luminescence (AID 1117323); type: functional, cell-based
# [30] = cytotoxicity toward HCT116 cells – cell-based, CellTiter-Glo luminescence, IC50, dose response (AID 1117332); type: functional; settings: HCT-116
# [31] = CellTiter-Glo luminescence survival assay, SW480 colon tumor line, concentration-response curve, half-maximal inhibitory concentration (AID 1117338); type: functional
# [32] = cytotoxicity toward HT-29 cells – cell-based, CellTiter-Glo luminescence, IC50, dose response (AID 1117330); type: functional
# Chain of G-protein coupled receptor 55 (Q9Y2T6 whole entry, the tested form may be a part): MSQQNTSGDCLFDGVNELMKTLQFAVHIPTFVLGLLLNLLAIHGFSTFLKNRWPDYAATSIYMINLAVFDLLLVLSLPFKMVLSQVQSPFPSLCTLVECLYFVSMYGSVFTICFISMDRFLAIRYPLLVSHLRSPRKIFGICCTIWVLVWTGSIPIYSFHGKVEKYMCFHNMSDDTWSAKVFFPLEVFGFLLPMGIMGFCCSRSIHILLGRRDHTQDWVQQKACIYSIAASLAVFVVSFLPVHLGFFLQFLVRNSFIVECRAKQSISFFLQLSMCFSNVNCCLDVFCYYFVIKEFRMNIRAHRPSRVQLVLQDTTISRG
structure (smiles),measurement,setting,value
CCCOC(=O)c1ccc(Oc2c(C)n[nH]c2-c2ccc(OC)cc2O)cc1,EC50,[1],12.2 µM (active)
same,EC50,[2],14.1 µM (active)
same,EC50,[3],6.36 µM (active)
same,EC50,[4],> 150 µM (not active)
same,EC50,[5],28.5 µM (active)
O=C(CN1C(=O)c2ccccc2S1(=O)=O)c1ccccc1F,AC50,[6],2.28 µM (active)
same,AC50,[7],4.05 µM (active)
same,AC50,[8],3.69 µM (active)
CCN(CC)S(=O)(=O)c1cc(C(=O)OCC(=O)Nc2ccc(-c3nc4ccc(C)cc4s3)cc2)ccc1F,AC50,[6],3.17 µM (active)
same,CC50,[9],11.4 µM (active)
same,AC50,[7],3.11 µM (active)
same,EC50,[10],> 67.5 µM (inactive)
COc1ccccc1NC(=O)c1c(/N=C/c2ccccc2O)cnn1C,IC50,[11],10.4 µM (active)
same,IC50,[12],10.5 µM (active)
same,IC50,[13],> 20 µM (inactive)
O=C(NC(=S)NC1CCN(Cc2ccccc2)CC1)c1ccc(F)cc1,IC50,[14],4.67 µM (active)
Cc1ccc(COC(=O)c2cc(S(=O)(=O)N3CCCCC3)ccc2N2CCOCC2)cc1,AC50,[15],> 70 µM (inactive)
same,AC50,[16],68.1 µM (active)
same,AC50,[17],10.6 µM (active)
same,AC50,[18],19.8 µM (active)
Cc1c(NC(=O)CCCCCN2C(=O)c3ccccc3C2=O)c(=O)n(-c2ccccc2)n1C,IC50,[11],0.709 µM (active)
same,IC50,[12],1.23 µM (active)
same,IC50,[13],> 20 µM (inactive)
C#CCOCCOCCOCCNc1nc(N2CCN(C(=O)[C@H](CCCCN)n3cc(CN)nn3)CC2)nc(N2CCN(C(=O)[C@H](CCCN=C(N)N)n3cc(C(N)[C@H](C)CC)nn3)CC2)n1 (stereo partly drawn),IC50,[11],7.94 µM (active)
same,IC50,[12],12 µM (active)
same,IC50,[13],> 20 µM (inactive)
CCCSc1ncc(Cl)c(C(=O)Nc2ccc(S(=O)(=O)N3CC(C)OC(C)C3)cc2)n1 (stereo not drawn),IC50,[14],5.75 µM (active)
CCc1ccc(C2CC(c3ccco3)=NN2S(C)(=O)=O)cc1 (stereo not drawn),EC50,[10],> 67.5 µM (inactive)
CC/C(=N\NC(=O)c1ccoc1C)c1ccc(C)o1,EC50,[10],> 67.5 µM (inactive)
CC(C)c1ccc(NC(=O)C[n+]2ccn(C3=C([O-])c4ccccc4C3=O)c2)cc1,IC50,[11],17.8 µM (active)
same,IC50,[12],11.8 µM (active)
same,IC50,[13],> 20 µM (inactive)
c1ccc(Cc2cnc(N3CCN(Cc4csc5ccccc45)CC3)nc2)cc1,AC50,[15],65 µM (active)
same,AC50,[16],47.5 µM (active)
same,AC50,[17],2.98 µM (active)
same,AC50,[18],2.86 µM (active)
Cc1sc2ncnc(Sc3nnnn3-c3ccc(Cl)cc3)c2c1C,EC50,[1],4.61 µM (active)
same,EC50,[19],> 350 µM (not active)
same,EC50,[3],5.19 µM (active)
same,EC50,[20],> 350 µM (not active)
Cc1conc1NC(c1cccs1)c1ccc2cccnc2c1O (stereo not drawn),EC50,[1],10.2 µM (active)
same,IC50,[21],> 20 µM (inactive)
same,EC50,[22],> 20 µM (inactive)
same,EC50,[2],1.93 µM (active)
same,IC50,[23],6.1 µM (active)
same,EC50,[3],5.68 µM (active)
same,EC50,[4],> 150 µM (not active)
same,IC50,[24],4.74 µM (active)
same,EC50,[5],7.33 µM (active)
COc1ccc(C2c3ccc(O)cc3Oc3ncn(CC(C)C)c(=N)c32)cc1 (stereo not drawn),IC50,[14],2.27 µM (active)
C=CC(C)(O)CCC=C(C)CCC=C(C)C (stereo not drawn),IC50,[25],> 20 µM (inactive)
same,IC50,[26],> 20 µM (inactive)
same,IC50,[27],10.3 µM (inactive)
same,IC50,[28],> 20 µM (inactive)
same,IC50,[29],> 20 µM (inactive)
same,IC50,[30],> 20 µM (inactive)
same,IC50,[31],> 20 µM (inactive)
same,IC50,[32],> 20 µM (inactive)
